# ChEMBL document CHEMBL5244275, “Geminal Diheteroatomic Motifs: Some Applications of Acetals, Ketals, and Their Sulfur and Nitrogen Homologues in Medicinal Chemistry and Drug Design” (J Med Chem, 2021)
# Columns and labels:
# [1] = Stability of the compound in 1M HCL buffer assessed as drug degradation by measuring rate constant by FRET-based assay; format: physicochemical
# [2] = Growth inhibition of human PC-12 cells; format: functional, PC12
# PC-6 = experiment: Growth inhibition of human PC-6 cells; format: functional
# [3] = Oral bioavailability in mouse; format: ADME, organism-based; details: in vivo
# [4] = Stability of the compound assessed as compound hydrolysis by measuring rate constant by NMR spectroscopic analysis; format: physicochemical
# Substance-P receptor = Substance-P receptor (Homo sapiens, UniProt P25103); experiment: Displacement of [125I]-labeled SP from human NK-1 receptor expressed in CHO cells; format: cell-based
# [5] = Oral bioavailability in human; format: ADME, organism-based; details: in vivo
# [6] = Inhibition of Leukotriene B4 production in human blood Polymorphonuclear neutrophil cells; format: functional, tissue-based
# [7] = Stability of the compound in HCL solution assessed as compound hydrolysis by measuring relative rate constant by NMR analysis; format: physicochemical; details: buffer
# [8] = Stability of the compound at pH 2 assessed as half-life; format: physicochemical; details: buffer
# [9] = Half-life in human plasma; format: ADME
# [10] = Chemical stability of the compound assessed as acid-catalyzed hydrolysis by measuring rate constant; format: physicochemical
# [11] = Dissociation constant, pKa of the compound; format: physicochemical
# [12] = Stability of the compound in 0.01 N HCL at pH 2.0 assessed as half-life; format: physicochemical
# [13] = Oral bioavailability in rat; format: ADME, organism-based; details: in vivo
# [14] = Oral bioavailability in dog; format: ADME, organism-based, Canis lupus familiaris; details: in vivo
# Chain of Substance-P receptor (P25103 whole entry): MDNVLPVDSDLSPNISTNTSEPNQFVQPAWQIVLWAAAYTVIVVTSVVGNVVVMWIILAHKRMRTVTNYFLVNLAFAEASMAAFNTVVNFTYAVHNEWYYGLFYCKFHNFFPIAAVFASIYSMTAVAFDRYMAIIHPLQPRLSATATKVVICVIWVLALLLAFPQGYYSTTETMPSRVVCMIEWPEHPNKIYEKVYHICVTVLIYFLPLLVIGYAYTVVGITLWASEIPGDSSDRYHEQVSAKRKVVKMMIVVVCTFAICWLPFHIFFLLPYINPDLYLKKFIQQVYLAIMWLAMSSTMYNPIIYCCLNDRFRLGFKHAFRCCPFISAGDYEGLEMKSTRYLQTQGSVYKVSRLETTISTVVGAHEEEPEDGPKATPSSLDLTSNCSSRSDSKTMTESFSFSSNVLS
smiles,measurement,setting,value
COc1cc(/N=N/c2ccc([N+](=O)[O-])cc2)c(OC)cc1/N=N/c1ccc(N(C)CCCC(=O)NCCSC2CC(=O)N(CC3OCC(C(=O)NCCCNC(=O)c4ccc(C(=O)[O-])c(-c5c6ccc(=[N+](C)C)cc-6oc6cc(N(C)C)ccc56)c4)O3)C2=O)cc1 (stereo not drawn),K,[1],1.59 10^-6/s
CC(=O)O[C@@]12CO[C@@H]1CC[C@@]1(C)[C@@H]3O[C@H](CN4CCOCC4)O[C@@H]3C3=C(C)[C@@H](OC(=O)[C@H](O)[C@@H](NC(=O)OC(C)(C)C)c4ncccc4F)C[C@@](O)([C@@H](OC(=O)c4ccccc4)[C@@H]12)C3(C)C,GI50,[2],0.14 ng/mL
same,GI50,PC-6,0.29 ng/mL
C=C(C)CN1C[C@H](OC[C@@]23C[C@@H]4[C@H](C)CC[C@H]4[C@@]4(C=O)C[C@@H]2C=C(C(C)C)[C@@]34C(=O)O)O[C@H](C)[C@@H](OC)C1,bioavailability,[3],63%
C=CC1(C)CCCCC1,K,[4],9.9 10^-3No_unit
CC(Cl)C1(C)CCC(C)(C)CC1 (stereo not drawn),K,[4],0
CN(C)Cc1[nH]nnc1CN1CCO[C@@]2(CC[C@@H](c3ccccc3OC(F)(F)F)CO2)[C@@H]1c1ccc(F)cc1,IC50,Substance-P receptor,1.4 nM
Nc1nc(Cl)nc2c1ncn2[C@H]1C[C@H](O)[C@@H](CO)O1 [CLADRIBINE],bioavailability,[5],40%
O=C1OCc2c1cc1cc(OCc3cccc(C4(O)CC5CCC(C4)O5)c3)ccc1c2-c1ccccc1 (stereo not drawn),IC50,[6],8 nM
CCOC1(OCC)OCCCO1,K,[7],2.3 10^9No_unit
CC(=O)O[C@@]12CO[C@@H]1CC[C@@]1(C)[C@@H]3O[C@H](CN(C)C)O[C@@H]3C3=C(C)[C@@H](OC(=O)[C@H](O)[C@@H](NC(=O)OC(C)(C)C)c4ncccc4F)C[C@@](O)([C@@H](OC(=O)c4ccccc4)[C@@H]12)C3(C)C [TESETAXEL],GI50,[2],0.62 ng/mL
same,GI50,PC-6,0.38 ng/mL
COC1(OC)OCCCO1,K,[7],2.6 10^8No_unit
COc1cc(/N=N/c2ccc([N+](=O)[O-])cc2)c(OC)cc1/N=N/c1ccc(N(C)CCCC(=O)NCCSC2CC(=O)N(CC3CCC(C(=O)NCCCNC(=O)c4ccc(C(=O)[O-])c(-c5c6ccc(=[N+](C)C)cc-6oc6cc(N(C)C)ccc56)c4)CC3)C2=O)cc1 (stereo not drawn),K,[1],3.06 10^-7/s
O=C(O)CCC/C=C\C[C@@H]1CO[C@H](C(F)(F)F)O[C@@H]1c1ccccc1O,t1/2,[8],7 yr
CC1(C)OC[C@@H](C/C=C\CCCC(=O)O)[C@@H](c2ccccc2O)O1,half-life,[8],56 s
N=C(N)NCCN1CCCCCCC1 [GUANETHIDINE],half-life,[9],36 h
CC(=O)O[C@H]1C(=O)[C@@]2(C)[C@H]([C@H](OC(=O)c3ccccc3)[C@]3(O)C[C@H](OC(=O)[C@H](O)[C@@H](NC(=O)c4ccccc4)c4ccccc4)C(C)=C1C3(C)C)[C@]1(OC(C)=O)CO[C@@H]1C[C@@H]2O [PACLITAXEL],GI50,[2],539 ng/mL
same,GI50,PC-6,1.27 ng/mL
COC(=O)N[C@H](C(=O)N1CCC[C@H]1c1ncc(-c2ccc(-c3ccc(-c4cnc([C@@H]5CC6(CN5C(=O)[C@@H](NC(=O)OC)C(C)C)OCCO6)[nH]4)cc3)cc2)[nH]1)C(C)C,half-life,[9],8 h
Nc1ncnc2c1ncn2[C@@H]1O[C@H](CO)[C@H](O)[C@H]1O,Drug metabolism,[10],0.29 10^-3L/mol/min
CC(=O)O[C@@]12CO[C@@H]1CC[C@@]1(C)[C@H]3OC(C)(C)O[C@@H]3C3=C(C)[C@@H](OC(=O)[C@H](O)[C@@H](NC(=O)OC(C)(C)C)c4ccccn4)C[C@@](O)([C@@H](OC(=O)c4ccccc4)[C@@H]12)C3(C)C,GI50,[2],0.15 ng/mL
same,GI50,PC-6,0.33 ng/mL
Cn1c(=O)c2c(ncn2CC2OCCO2)n(C)c1=O [DOXOFYLLINE],bioavailability,[5],63%
same,half-life,[9],7 h
C=CC1(C)CCC(C)(C)CC1,K,[4],7.33 10^-4No_unit
CC(=O)O[C@@]12CO[C@@H]1C[C@H](O)[C@@]1(C)C(=O)[C@H](O)C3=C(C)[C@@H](OC(=O)[C@H](O)[C@@H](NC(=O)OC(C)(C)C)c4ccccc4)C[C@@](O)([C@@H](OC(=O)c4ccccc4)[C@H]21)C3(C)C [DOCETAXEL ANHYDROUS],GI50,[2],42.2 ng/mL
same,GI50,PC-6,1.48 ng/mL
C1CCC2(CC1)OCCCCO2,K,[7],1 10^8No_unit
CCC(C)n1ncn(-c2ccc(N3CCN(c4ccc(OCC5COC(Cn6cncn6)(c6ccc(Cl)cc6Cl)O5)cc4)CC3)cc2)c1=O (stereo not drawn) [ITRACONAZOLE],pKa,[11],3.7
CCC1(C)OCCCO1,K,[7],3.7 10^6No_unit
C[C@H]1[C@@H](OCc2ccc(C(=O)O)cc2)O[C@@H]2O[C@@]3(C)CC[C@H]4[C@H](C)CC[C@@H]1[C@@]24OO3,half-life,[12],11 h
c1cc([C@H]2CC[C@]3(CC2)OOC2(O3)C3CC4CC(C3)CC2C4)ccc1OCCN1CCOCC1 (stereo partly drawn),bioavailability,[13],76%
FC1CCN(CCc2ccc(C3CCC4(CC3)OOC3(OO4)C4CC5CC(C4)CC3C5)cc2)CC1 (stereo not drawn),bioavailability,[14],40%
same,bioavailability,[13],62%
same,bioavailability,[3],82%
C[C@H]1[C@@H](O[C@H](CCC(=O)O)c2ccc(Cl)cc2)O[C@@H]2O[C@@]3(C)CC[C@H]4[C@H](C)CC[C@@H]1[C@@]24OO3,half-life,[12],13 h
c1ccc2c(c1)CCOC1(CCCCC1)O2,K,[7],1.3 10^8No_unit
COc1cc(/N=N/c2ccc([N+](=O)[O-])cc2)c(OC)cc1/N=N/c1ccc(N(C)CCCC(=O)NCCSC2CC(=O)N(CCC3OCC(C(=O)NCCCNC(=O)c4ccc(-c5c6ccc(=[N+](C)C)cc-6oc6cc(N(C)C)ccc56)c(C(=O)[O-])c4)CO3)C2=O)cc1 (stereo not drawn),K,[1],2.28 10^-6/s
Fc1ccc([C@@H]2NCCO[C@@]23CC[C@@H](c2ccccc2C(F)(F)F)CO3)cc1,IC50,Substance-P receptor,28 nM
CC(Cl)C1(C)OCCO1 (stereo not drawn),K,[4],0
Nc1ncnc2c1ncn2[C@H]1CC[C@@H](CO)O1,Drug metabolism,[10],35 L/mol/min
COc1cc(/N=N/c2ccc([N+](=O)[O-])cc2)c(OC)cc1/N=N/c1ccc(N(C)CCCC(=O)NCCSC2CC(=O)N(CC3OCC(C(=O)NCCCNC(=O)c4ccc(C(=O)[O-])c(-c5c6ccc(=[N+](C)C)cc-6oc6cc(N(C)C)ccc56)c4)CO3)C2=O)cc1 (stereo not drawn),K,[1],3.8 10^-7/s
c1ccc2c(c1)COC1(CCCCC1)OC2,K,[7],3.3 10^6No_unit
c1ccc2c(c1)OC1(CCCCC1)O2,K,[7],1
Fc1ccc([C@@H]2NCCO[C@]23CC[C@H](c2ccccc2C(F)(F)F)CO3)cc1,IC50,Substance-P receptor,400 nM
C[C@@H](c1c[nH]c2ccccc12)[C@H](C(=O)NC[C@H]1OC[C@H](N)CO1)N1CCN(CCCc2ccccc2)C1=O,bioavailability,[14],19%
C1CCC2(CC1)OCCCO2,K,[7],2.1 10^7No_unit
C1COCOC1,K,[7],1
COc1cc(/N=N/c2ccc([N+](=O)[O-])cc2)c(OC)cc1/N=N/c1ccc(N(C)CCCC(=O)NCCSC2CC(=O)N(CCC3OCC(C(=O)NCCCNC(=O)c4ccc(-c5c6ccc(=[N+](C)C)cc-6oc6cc(N(C)C)ccc56)c(C(=O)[O-])c4)O3)C2=O)cc1 (stereo not drawn),K,[1],4.61 10^-6/s
C1CCC2(CC1)OCCO2,K,[7],5.4 10^5No_unit
c1ccc2c(c1)COC1(CCCCC1)O2,K,[7],2.1 10^4No_unit
Nc1ncnc2c1ncn2[C@@H]1O[C@H](CO)[C@@H](O)[C@H]1O [ADENOSINE],Drug metabolism,[10],0.82 10^-3L/mol/min
Nc1ncnc2c1ncn2[C@@H]1O[C@H](CO)C[C@H]1O [CORDYCEPIN],Drug metabolism,[10],0.012 L/mol/min
CC(Cl)C1(C)CCCCC1 (stereo not drawn),K,[4],2.25 10^-6No_unit
Fc1ccc([C@@H]2NCCO[C@@]23C[C@@H](c2ccccc2C(F)(F)F)CO3)cc1,IC50,Substance-P receptor,24 nM
Nc1ccn([C@H]2CC[C@@H](CO)O2)c(=O)n1 [ZALCITABINE],bioavailability,[5],80%
Nc1ccn([C@@H]2O[C@H](CO)[C@@H](O)[C@@H]2O)c(=O)n1 [CYTARABINE],bioavailability,[5],20%
COC1OCCCO1,K,[7],9.3 10^4No_unit
C[C@H]1[C@@H](CCCCC(=O)O)O[C@@H]2O[C@@]3(C)CC[C@H]4[C@H](C)CC[C@@H]1[C@@]24OO3,half-life,[12],165 h
Nc1nc2c(ncn2[C@H]2C=C[C@@H](CO)O2)c(=O)[nH]1,half-life,[8],< 120 s
COC1(C)OCCCO1,K,[7],2.4 10^9No_unit
C[C@H]1[C@@H](CCc2ccc(C(=O)O)cc2)O[C@@H]2O[C@@]3(C)CC[C@H]4[C@H](C)CC[C@@H]1[C@@]24OO3,half-life,[12],165 h
C=CC1(C)OCCO1,K,[4],8.8 10^-4No_unit
Nc1ncnc2c1ncn2[C@H]1C[C@H](O)[C@@H](CO)O1 [DEOXYADENOSINE],Drug metabolism,[10],0.96 L/mol/min
C[C@H]1[C@@H](CCCC(=O)O)O[C@@H]2O[C@@]3(C)CC[C@H]4[C@H](C)CC[C@@H]1[C@@]24OO3,half-life,[12],165 h
Nc1ncnc2c1ncn2[C@@H]1O[C@H](CO)[C@H](O)[C@@H]1O,Drug metabolism,[10],9.6 10^-3L/mol/min
CCC1OCCCO1,K,[7],1 10^2No_unit
CCOC1(OCC)CCCCC1,K,[7],1.3 10^10No_unit
C[C@@H](c1c[nH]c2ccccc12)[C@H](C(=O)NC[C@H]1OC[C@H](N)CO1)N1CCN(CCC(c2ccccc2)c2ccccc2)C1=O,bioavailability,[14],64%
CCCC[C@H]1O[C@@H]2O[C@@]3(C)CC[C@H]4[C@H](C)CC[C@@H]([C@H]1C)[C@@]24OO3,half-life,[12],165 h
C[C@@H]1CC[C@H]2[C@@H](C)CO[C@@H]3O[C@@]4(C)CC[C@@H]1[C@]32OO4,half-life,[12],165 h
COc1cccc(-n2nnnc2C(F)(F)F)c1[C@H]1CO[C@@]2(C1)OCCN[C@H]2c1ccc(F)cc1,IC50,Substance-P receptor,0.1 nM
Nc1ncnc2c1ncn2[C@@H]1O[C@H](CO)C[C@@H]1O,Drug metabolism,[10],0.057 L/mol/min
C[C@H]1[C@@H](Cc2ccccc2)O[C@@H]2O[C@@]3(C)CC[C@H]4[C@H](C)CC[C@@H]1[C@@]24OO3,half-life,[12],165 h
CN(C)Cc1[nH]nnc1CN1CCO[C@@]2(CC[C@@H](c3ccccc3C(F)(F)F)CO2)[C@@H]1c1ccc(F)cc1,IC50,Substance-P receptor,1.1 nM
COC(=O)N[C@H](C(=O)N1CCC[C@H]1c1nc(-c2ccc(-c3ccc(-c4c[nH]c([C@@H]5CCCN5C(=O)[C@@H](NC(=O)OC)C(C)C)n4)cc3)cc2)c[nH]1)C(C)C,half-life,[9],12 h
N=C(N)NCC1COC2(CCCCC2)O1 (stereo not drawn),half-life,[9],12 h
